Reference: patent publication US4515941A, “23-Demycinosyldesmycosin derivatives” (Toyo Jozo Kabushiki Kaisha, priority 1982, dated 1985)
In brackets after ≈: the same amount, converted by molar mass. Read-outs that look alike come from different tables or passages of the source.

Tests used:
Assay type in all cases: cell-based
[1] = tested on: Klebsiella pneumoniae ATCC 10031; assay: MIC, Klebsiella pneumoniae ATCC 10031
[2] = tested on: Escherichia coli NIHJ-JC2; assay: MIC, Escherichia coli NIHJ-JC2; conditions: NIHJJC2
[3] = tested on: Streptococcus agalactiae 1020; assay: MIC, Streptococcus agalactiae 1020
Shigella sonnei E33 = assay: MIC, Shigella sonnei E33
[4] = tested on: Streptococcus pyogenes 1022; assay: MIC, Streptococcus pyogenes 1022 (macrolide resistant); conditions: macrolide resistant bacteria A group
From the text: (§1) *macrolide resistant bacteria A group (clinical isolates of erythromycin,
(§2) oleandomycin and 16membered macrolide antibiotic resistant strains.)

[5] = tested on: Staphylococcus epidermis sp-al-1; assay: MIC, Staphylococcus epidermis sp-al-1
[6] = tested on: Streptococcus faecalis 1501; assay: MIC, Streptococcus faecalis 1501
[7] = tested on: Streptococcus pyogenes N.Y.5; assay: MIC, Streptococcus pyogenes N.Y.5
[8] = tested on: Staphylococcus aureus MS353; assay: MIC, Staphylococcus aureus MS353
Salmonella typhosa H901 = assay: MIC, Salmonella typhosa H901
[9] = tested on: Staphylococcus aureus ATCC 6538P; assay: MIC, Staphylococcus aureus ATCC 6538P; conditions: ATCC6538P
Proteus vulgaris OX19 = assay: MIC, Proteus vulgaris OX19
[10] = tested on: Bacillus subtilis ATC 6633; assay: MIC, Bacillus subtilis ATC 6633
[11] = tested on: Pseudomonas aeruginosa IAM 1095; assay: MIC, Pseudomonas aeruginosa IAM 1095; conditions: IAM1095
Sarcina lutea ATCC 9341 = assay: MIC, Sarcina lutea ATCC 9341; conditions: Micrococcus luteus, ATCC9341
[12] = tested on: Staphylococcus aureus MS353 A0; assay: MIC, Staphylococcus aureus MS353 A0 (macrolide resistant); conditions: MS353A0, macrolide resistant bacteria A group
From the text: as §1, §2

[13] = tested on: Micrococcus flavus ATCC 10240; assay: MIC, Micrococcus flavus ATCC 10240; conditions: Micrococcus flavus, ATCC10240
[14] = tested on: Corynebacterium diptheriae P.Y.8; assay: MIC, Corynebacterium diptheriae P.Y.8
[15] = tested on: Shigella flexineri type 3a; assay: MIC, Shigella flexineri type 3a; conditions: TYPE3A
Serratia marcescens = assay: MIC, Serratia marcescens
Escherichia coli B = assay: MIC, Escherichia coli B
[16] = tested on: Staphylococcus aureus MS353 C36; assay: MIC, Staphylococcus aureus MS353 C36; conditions: MS353C36
[17] = tested on: Salmonella enteritidis Gaertner; assay: MIC, Salmonella enteritidis Gaertner; conditions: Salmonella enterica, ENTERITIDIS
[18] = tested on: Staphylococcus aureus 0127; assay: MIC, Staphylococcus aureus 0127 (macrolide resistant); conditions: Staphylococcus aureus 0127; macrolide resistant bacteria A group; read-out: MIC
From the text: as §1, §2

[19] = ATCC10031, Klebsiella pneumoniae ATCC 10031, read-out: MIC
[20] = Streptococcus agalactiae 1020, read-out: MIC
[21] = Streptococcus pyogenes 1022, read-out: MIC
[22] = SPAL1, Staphylococcus epidermis sp-al-1, read-out: MIC
[23] = Enterococcus faecalis, Streptococcus faecalis 1501, read-out: MIC
[24] = Staphylococcus aureus MS353, read-out: MIC
[25] = Proteus vulgaris OX19, read-out: MIC
[26] = ATC6633, Bacillus subtilis ATC 6633, read-out: MIC
[27] = Pseudomonas aeruginosa IAM 1095, read-out: MIC
[28] = Klebsiella pneumoniae, ATCC10031, Klebsiella pneumoniae ATCC 10031
[29] = Enterococcus faecalis, 1501, Streptococcus faecalis 1501
[30] = Proteus vulgaris, OX19, Proteus vulgaris OX19
[31] = Bacillus subtilis, ATC6633, Bacillus subtilis ATC 6633
[32] = Corynebacterium diptheriae P.Y.8, read-out: MIC

Compound	MIC [1, 19] [µg/mL]	MIC [2] [µg/mL]	MIC [3, 20] [µg/mL]	MIC (Shigella sonnei E33) [µg/mL]	MIC [4, 21] [µg/mL]	MIC [5, 22] [µg/mL]	MIC [6, 23] [µg/mL]	MIC ([7]; read-out: MIC) [µg/mL]	MIC [8, 24] [µg/mL]	MIC (Salmonella typhosa H901; Salmonella enterica, TYPHOSA) [µg/mL]	MIC ([9]; read-out: MIC) [µg/mL]	MIC (Proteus vulgaris OX19; [25]) [µg/mL]	MIC [10, 26] [µg/mL]	MIC [11, 27] [µg/mL]	MIC (Sarcina lutea ATCC 9341) [µg/mL]	MIC [12] [µg/mL]	MIC [14, 32] [µg/mL]	other results
CCC1OC(=O)CC(O)C(C)C(OC2OC(C)C(O)C(N(C)C)C2O)C(CC=O)CC(C)C(=O)C=CC(C)=CC1CSC(C)c1ccccc1 (stereo not drawn) [23-(1-phenylethyl)thio-23-demycinosyl-23-deoxydesmycosin]	3.1 (≈ 4.32 µM)	50 (≈ 69.6 µM)	0.1 (≈ 0.139 µM)	50 (≈ 69.6 µM)	25 (≈ 34.8 µM)	≤ 0.05	0.2 (≈ 0.279 µM)	≤ 0.05	0.2 (≈ 0.279 µM)	100 (≈ 139 µM)	0.2 (≈ 0.279 µM)	12.5 (≈ 17.4 µM)	0.2 (≈ 0.279 µM)	> 100	0.05 (≈ 0.0696 µM)	25 (≈ 34.8 µM)		
CC[C@H]1OC(=O)[C@H](C)[C@@H](O[C@H]2C[C@@](C)(OC)[C@@H](O)[C@H](C)O2)[C@H](C)[C@@H](O[C@@H]2O[C@H](C)C[C@H](N(C)C)[C@H]2O)[C@](C)(O)C[C@@H](C)C(=O)[C@H](C)[C@@H](O)[C@]1(C)O [EM, erythromycin, reference compound]		100 (≈ 136 µM)		100 (≈ 136 µM)						100 (≈ 136 µM)					≤ 0.05			MIC [1, 28]: 6.3 µg/mL (≈ 8.58 µM); MIC [13]: 0.1 µg/mL (≈ 0.136 µM); MIC ([14]; Corynebacterium, P.Y.8): ≤ 0.05 µg/mL; MIC [6, 29]: 0.2 µg/mL (≈ 0.273 µM); MIC [15]: 12.5 µg/mL (≈ 17 µM); MIC (Serratia marcescens): 100 µg/mL (≈ 136 µM); MIC (Salmonella typhosa H901): 50 µg/mL (≈ 68.1 µM); MIC (Proteus vulgaris OX19; Proteus vulgaris OX19): 25 µg/mL (≈ 34.1 µM); MIC (Proteus vulgaris OX19; [30]): 50 µg/mL (≈ 68.1 µM); MIC [10, 31]: 0.1 µg/mL (≈ 0.136 µM); MIC (Escherichia coli B): > 100 µg/mL; MIC ([11]; Pseudomonas aeruginosa): 100 µg/mL (≈ 136 µM); MIC [16]: 0.4 µg/mL (≈ 0.545 µM); MIC [17]: 100 µg/mL (≈ 136 µM)
CC[C@H]1OC(=O)C[C@@H](O)[C@H](C)[C@@H](O[C@@H]2O[C@H](C)[C@@H](O[C@H]3C[C@@](C)(O)[C@@H](O)[C@H](C)O3)[C@H](N(C)C)[C@H]2O)[C@@H](CC=O)C[C@@H](C)C(=O)/C=C/C(C)=C/[C@@H]1CO[C@@H]1O[C@H](C)[C@@H](O)[C@@H](OC)[C@H]1OC [TS, tylosin, reference compound]				> 100						> 100					≤ 0.05			MIC ([1]; Klebsiella pneumoniae ATCC 10031): 100 µg/mL (≈ 109 µM); MIC [1, 28]: 50 µg/mL (≈ 54.6 µM); MIC ([3]; Streptococcus agalactiae 1020): 0.4 µg/mL (≈ 0.437 µM); MIC ([3]; Streptococcus agalactiae, 1020, Streptococcus agalactiae 1020): 0.2 µg/mL (≈ 0.218 µM); MIC [13]: ≤ 0.05 µg/mL; MIC ([5]; Staphylococcus, SPAL1, Staphylococcus epidermis sp-al-1): 0.4 µg/mL (≈ 0.437 µM); MIC ([14]; Corynebacterium, P.Y.8): ≤ 0.05 µg/mL; MIC [6, 29]: 0.8 µg/mL (≈ 0.873 µM); MIC ([6]; Streptococcus faecalis 1501): 1.6 µg/mL (≈ 1.75 µM); MIC [7]: 0.1 µg/mL (≈ 0.109 µM); MIC [15]: 50 µg/mL (≈ 54.6 µM); MIC (Serratia marcescens): > 100 µg/mL; MIC ([8]; Staphylococcus aureus, MS353, Staphylococcus aureus MS353): 0.8 µg/mL (≈ 0.873 µM); MIC ([9]; Staphylococcus aureus): 0.8 µg/mL (≈ 0.873 µM); MIC (Proteus vulgaris OX19; [30]): > 100 µg/mL; MIC [10, 31]: 0.2 µg/mL (≈ 0.218 µM); MIC ([11]; Pseudomonas aeruginosa): > 100 µg/mL; MIC [16]: 0.4 µg/mL (≈ 0.437 µM); MIC [17]: > 100 µg/mL
CCC1OC(=O)CC(O)C(C)C(OC2OC(C)C(O)C(N(C)C)C2O)C(CC=O)CC(C)C(=O)C=CC(C)=CC1CSc1ccccc1 (stereo not drawn) [SC6 H5]	1.6 (≈ 2.32 µM)	50 (≈ 72.5 µM)	≤ 0.05	50 (≈ 72.5 µM)	25 (≈ 36.2 µM)	≤ 0.05	≤ 0.05	≤ 0.05	0.1 (≈ 0.145 µM)	50 (≈ 72.5 µM)	0.1 (≈ 0.145 µM)	12.5 (≈ 18.1 µM)	0.1 (≈ 0.145 µM)	100 (≈ 145 µM)	≤ 0.05	25 (≈ 36.2 µM)	≤ 0.05	
CCC1OC(=O)CC(O)C(C)C(OC2OC(C)C(O)C(N(C)C)C2O)C(CC=O)CC(C)C(=O)C=CC(C)=CC1COC(c1ccccc1)(c1ccccc1)c1ccccc1 (stereo not drawn) [OC(C6 H5)3, 23-O-triphenylmethyl-23-demycinosyldesmycosin]	> 100	> 100	1.6 (≈ 1.9 µM)	> 100	3.1 (≈ 3.69 µM)	1.6 (≈ 1.9 µM)	1.6 (≈ 1.9 µM)	0.8 (≈ 0.952 µM)	1.6 (≈ 1.9 µM)	> 100	1.6 (≈ 1.9 µM)	> 100	3.1 (≈ 3.69 µM)	> 100	0.4 (≈ 0.476 µM)	6.3 (≈ 7.5 µM)	0.1 (≈ 0.119 µM)	MIC [18]: 25 µg/mL (≈ 29.8 µM)
CCC1OC(=O)CC(O)C(C)C(OC2OC(C)C(O)C(N(C)C)C2O)C(CC=O)CC(C)C(=O)C=CC(C)=CC1CSCc1ccccc1 (stereo not drawn) [SCH2 C6 H5, 23-benzylthio-23-demycinosyl-23-deoxydesmycosin]	1.6 (≈ 2.27 µM)	50 (≈ 71 µM)	≤ 0.05	25 (≈ 35.5 µM)		≤ 0.05	≤ 0.05	≤ 0.05	≤ 0.05	50 (≈ 71 µM)	≤ 0.05	6.3 (≈ 8.95 µM)	0.1 (≈ 0.142 µM)	100 (≈ 142 µM)	≤ 0.05	50 (≈ 71 µM)	≤ 0.05	
CCC1OC(=O)CC(O)C(C)C(OC2OC(C)C(O)C(N(C)C)C2O)C(CC=O)CC(C)C(=O)C=CC(C)=CC1CSCCc1ccccc1 (stereo not drawn) [S(CH2)2 C6 H5, 23-(2-phenylethyl)thio-23-demycinosyl-23-deoxydesmycosin]	3.1 (≈ 4.32 µM)	50 (≈ 69.6 µM)	≤ 0.05	25 (≈ 34.8 µM)		≤ 0.05	0.1 (≈ 0.139 µM)	≤ 0.05	0.1 (≈ 0.139 µM)	> 100	0.1 (≈ 0.139 µM)	12.5 (≈ 17.4 µM)	0.1 (≈ 0.139 µM)	> 100	≤ 0.05	50 (≈ 69.6 µM)		MIC ([4]; Streptococcus pyogenes, 1022, Streptococcus pyogenes 1022): 25 µg/mL (≈ 34.8 µM)
CCC1OC(=O)CC(O)C(C)C(OC2OC(C)C(O)C(N(C)C)C2O)C(CC=O)CC(C)C(=O)C=CC(C)=CC1COCc1ccccc1 (stereo not drawn) [OCH 2 C6 H5, 23-O-benzyl-23-demycinosyldesmycosin]	6.3 (≈ 9.16 µM)	25 (≈ 36.3 µM)	≤ 0.05	25 (≈ 36.3 µM)	3.1 (≈ 4.51 µM)	≤ 0.05	0.05 (≈ 0.0727 µM)	≤ 0.05	≤ 0.05	100 (≈ 145 µM)	≤ 0.05	3.1 (≈ 4.51 µM)	≤ 0.05	50 (≈ 72.7 µM)	≤ 0.05	50 (≈ 72.7 µM)	≤ 0.05	MIC [18]: 100 µg/mL (≈ 145 µM)
